Experimental data taken from ChEMBL document CHEMBL1909046, “DrugMatrix in vitro pharmacology data”.

Key:
[1] = DRUGMATRIX: GABAA, Flunitrazepam, Central radioligand binding (ligand: [3H] Flunitrazepam); assay type: cell membranes, Rattus norvegicus, Wistar, Brain, Membrane; settings: Not Active = under 50% inhibition at 10 µM
[2] = biological target: T1, 5-hydroxytryptamine receptor 2C (Homo sapiens, UniProt P28335); assay: DRUGMATRIX: Serotonin (5-Hydroxytryptamine) 5-HT2C radioligand binding (ligand: [3H] Mesulergine); assay type: cell membranes, CHO-K1, Membrane; settings: Not Active = under 50% inhibition at 10 µM
T1 sequence (P28335 whole entry): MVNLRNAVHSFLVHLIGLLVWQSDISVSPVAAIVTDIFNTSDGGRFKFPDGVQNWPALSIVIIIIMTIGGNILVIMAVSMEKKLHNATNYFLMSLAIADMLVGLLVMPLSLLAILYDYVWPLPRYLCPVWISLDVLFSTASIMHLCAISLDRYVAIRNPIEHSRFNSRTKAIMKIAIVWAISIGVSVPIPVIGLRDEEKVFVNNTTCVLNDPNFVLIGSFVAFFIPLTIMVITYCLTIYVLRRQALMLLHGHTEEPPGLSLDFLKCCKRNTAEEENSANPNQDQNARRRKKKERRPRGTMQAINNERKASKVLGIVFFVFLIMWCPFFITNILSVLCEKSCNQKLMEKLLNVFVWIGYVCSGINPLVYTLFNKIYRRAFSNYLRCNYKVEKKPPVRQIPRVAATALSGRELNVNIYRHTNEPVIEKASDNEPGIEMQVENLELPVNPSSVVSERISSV

Cytochrome P450 2C9 = Cytochrome P450 2C9 (Homo sapiens, UniProt P11712); settings: bti-tn-5b1-4; also: in other assays of this panel Not Active means under 50% inhibition at 10 µM
Cytochrome P450 3A4 = Cytochrome P450 3A4 (Homo sapiens, UniProt P08684); settings: bti-tn-5b1-4; also: in other assays of this panel Not Active means under 50% inhibition at 10 µM
D(1A) dopamine receptor = D(1A) dopamine receptor (Homo sapiens, UniProt P21728); assay: DRUGMATRIX: Dopamine D1 radioligand binding (ligand: [3H] SCH-23390); assay type: cell membranes, CHO, Membrane; settings: cho; Not Active = under 50% inhibition at 10 µM
[3] = biological target: T2, Alpha-2A adrenergic receptor (Homo sapiens, UniProt P08913); assay type: cell membranes, Sf9, Membrane; settings: for Ki: read-out: Ki; as to all read-outs here: in other assays of this panel Not Active means under 50% inhibition at 10 µM
T2 sequence (P08913 whole entry): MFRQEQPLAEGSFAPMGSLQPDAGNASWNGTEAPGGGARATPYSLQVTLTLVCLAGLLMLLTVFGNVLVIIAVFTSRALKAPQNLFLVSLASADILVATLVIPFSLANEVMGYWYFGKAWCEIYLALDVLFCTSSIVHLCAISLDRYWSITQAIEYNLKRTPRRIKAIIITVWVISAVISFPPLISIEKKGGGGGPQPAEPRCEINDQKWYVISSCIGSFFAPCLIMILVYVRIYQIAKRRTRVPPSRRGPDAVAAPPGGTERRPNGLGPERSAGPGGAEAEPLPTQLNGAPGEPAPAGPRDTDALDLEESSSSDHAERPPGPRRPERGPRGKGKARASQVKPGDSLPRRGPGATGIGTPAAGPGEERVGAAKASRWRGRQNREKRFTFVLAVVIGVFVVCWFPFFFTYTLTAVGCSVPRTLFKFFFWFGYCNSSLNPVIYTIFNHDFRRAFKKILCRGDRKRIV

Estrogen receptor = biological target: T3, Estrogen receptor (Homo sapiens, UniProt P03372); settings: sf9; also: in other assays of this panel Not Active means under 50% inhibition at 10 µM
T3 sequence (P03372 whole entry): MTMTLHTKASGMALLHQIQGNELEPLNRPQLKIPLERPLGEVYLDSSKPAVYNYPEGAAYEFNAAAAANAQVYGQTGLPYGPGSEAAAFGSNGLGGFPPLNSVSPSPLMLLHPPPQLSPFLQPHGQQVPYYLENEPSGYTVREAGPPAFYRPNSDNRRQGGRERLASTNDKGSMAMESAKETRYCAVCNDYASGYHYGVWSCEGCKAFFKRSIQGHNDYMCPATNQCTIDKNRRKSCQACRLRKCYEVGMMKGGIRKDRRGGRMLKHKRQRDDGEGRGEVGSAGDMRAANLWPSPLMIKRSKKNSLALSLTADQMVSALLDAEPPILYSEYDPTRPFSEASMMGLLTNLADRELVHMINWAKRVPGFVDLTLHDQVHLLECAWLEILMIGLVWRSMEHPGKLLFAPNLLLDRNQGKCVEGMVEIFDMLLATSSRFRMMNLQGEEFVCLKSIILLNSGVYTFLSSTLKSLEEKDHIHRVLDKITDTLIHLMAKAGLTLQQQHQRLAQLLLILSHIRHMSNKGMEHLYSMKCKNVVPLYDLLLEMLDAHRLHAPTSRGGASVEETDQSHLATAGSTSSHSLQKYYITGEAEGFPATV

Chain of Cytochrome P450 3A4 (P08684 whole entry): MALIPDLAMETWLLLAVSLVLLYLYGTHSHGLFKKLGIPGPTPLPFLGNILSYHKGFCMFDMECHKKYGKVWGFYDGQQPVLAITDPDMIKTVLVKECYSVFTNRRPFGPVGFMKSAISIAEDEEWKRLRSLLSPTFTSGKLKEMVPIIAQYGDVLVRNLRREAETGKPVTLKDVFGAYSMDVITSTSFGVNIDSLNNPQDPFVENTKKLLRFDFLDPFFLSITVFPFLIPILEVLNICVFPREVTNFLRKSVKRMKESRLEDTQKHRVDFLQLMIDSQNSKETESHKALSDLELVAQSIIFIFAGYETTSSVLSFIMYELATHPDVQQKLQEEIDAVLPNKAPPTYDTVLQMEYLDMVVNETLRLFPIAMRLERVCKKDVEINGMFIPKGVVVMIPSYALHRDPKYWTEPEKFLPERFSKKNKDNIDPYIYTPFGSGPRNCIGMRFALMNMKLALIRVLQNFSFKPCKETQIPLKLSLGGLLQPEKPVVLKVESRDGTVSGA
Chain of D(1A) dopamine receptor (P21728 whole entry): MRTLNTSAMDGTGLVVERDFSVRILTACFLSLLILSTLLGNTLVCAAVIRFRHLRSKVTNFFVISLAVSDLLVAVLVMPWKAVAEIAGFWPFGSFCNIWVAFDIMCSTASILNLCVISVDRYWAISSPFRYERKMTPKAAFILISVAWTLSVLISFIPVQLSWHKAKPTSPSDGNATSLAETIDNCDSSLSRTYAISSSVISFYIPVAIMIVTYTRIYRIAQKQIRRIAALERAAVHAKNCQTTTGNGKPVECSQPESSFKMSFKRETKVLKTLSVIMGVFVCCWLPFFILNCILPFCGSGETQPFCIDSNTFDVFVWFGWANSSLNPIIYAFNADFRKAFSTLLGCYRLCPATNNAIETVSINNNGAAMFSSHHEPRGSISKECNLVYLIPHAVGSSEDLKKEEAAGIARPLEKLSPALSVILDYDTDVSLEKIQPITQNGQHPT
Chain of Cytochrome P450 2C9 (P11712 whole entry): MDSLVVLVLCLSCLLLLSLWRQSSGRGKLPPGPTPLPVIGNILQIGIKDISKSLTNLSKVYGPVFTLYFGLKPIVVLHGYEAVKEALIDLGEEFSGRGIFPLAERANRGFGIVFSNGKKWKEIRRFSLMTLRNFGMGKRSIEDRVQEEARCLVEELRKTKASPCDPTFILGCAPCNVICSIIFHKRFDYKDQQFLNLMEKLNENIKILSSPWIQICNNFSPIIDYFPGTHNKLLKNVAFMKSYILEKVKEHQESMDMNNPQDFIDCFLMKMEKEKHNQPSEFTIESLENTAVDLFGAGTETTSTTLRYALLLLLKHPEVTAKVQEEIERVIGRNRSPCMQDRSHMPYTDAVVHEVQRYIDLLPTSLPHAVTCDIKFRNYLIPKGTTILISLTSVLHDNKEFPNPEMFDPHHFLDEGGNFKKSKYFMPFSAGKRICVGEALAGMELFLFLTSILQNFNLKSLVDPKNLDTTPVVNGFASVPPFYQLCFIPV

Row | Structure (SMILES) | IC50 [1] | Ki [1] | IC50 ([2]; cho-k1) | IC50 (Cytochrome P450 2C9) | Ki (Cytochrome P450 2C9) | IC50 (Cytochrome P450 3A4) | Ki (Cytochrome P450 3A4) | IC50 (D(1A) dopamine receptor) | IC50 ([3]; sf9) | IC50 (Estrogen receptor) | IC50 ([2]; read-out: IC50) | Ki ([2]; read-out: Ki) | IC50 ([3]; read-out: IC50) | Ki [3]
1 | C#C[C@]1(O)CC[C@H]2[C@@H]3[C@H](C)CC4=C(CCC(=O)C4)[C@H]3CC[C@@]21C [TIBOLONE] | Not Active | Not Active | Not Active | Not Active | Not Active | Not Active | Not Active | Not Active | Not Active | – | – | – | – | –
2 | CCN(CC)C(=S)SSC(=S)N(CC)CC | Not Active | Not Active | Not Active | Not Active | Not Active | Not Active | Not Active | – | – | Not Active | – | – | – | –
3 | O=C(O)c1cc(/N=N/c2ccc(S(=O)(=O)Nc3ccccn3)cc2)ccc1O [SULFASALAZINE] | Not Active | Not Active | Not Active | Not Active | Not Active | Not Active | Not Active | Not Active | Not Active | – | – | – | – | –
4 | O=C(c1ccccc1)c1ccc2n1CCC2C(=O)O (configuration not stated) [KETOROLAC] | Not Active | Not Active | Not Active | Not Active | Not Active | Not Active | Not Active | Not Active | Not Active | – | – | – | – | –
5 | CO[C@@H]1[C@@H](OC)[C@H](C)[C@@](O)(CC(=O)O)O[C@H]1[C@H](C)[C@H]1O[C@@]2(CC[C@@](C)([C@H]3CC[C@@](C)([C@@H]4O[C@@H]([C@H]5O[C@](C)(O)[C@H](C)C[C@@H]5C)C[C@@H]4O[C@@H]4C[C@H](OC)[C@@H](OC)[C@H](C)O4)O3)O2)C[C@H](O)[C@H]1C.N [MADURAMICIN] | Not Active | Not Active | Not Active | Not Active | Not Active | Not Active | Not Active | – | Not Active | Not Active | – | – | – | –
6 | Cc1ccc(S(=O)(=O)NC(=O)NN2CCCCCC2)cc1 [TOLAZAMIDE] | Not Active | Not Active | Not Active | – | – | – | – | Not Active | Not Active | Not Active | – | – | – | –
7 | Cc1cc2c(s1)Nc1ccccc1N=C2N1CCN(C)CC1 [OLANZAPINE] | – | – | – | Not Active | Not Active | Not Active | Not Active | – | – | Not Active | – | – | – | –
8 | O=C1CC[C@@]2(O)[C@H]3Cc4ccc(O)c5c4[C@@]2(CCN3CC2CC2)[C@H]1O5 [NALTREXONE] | Not Active | Not Active | Not Active | Not Active | Not Active | Not Active | Not Active | Not Active | Not Active | – | – | – | – | –
9 | CCOc1cc(N)c(Cl)cc1C(=O)NCC1CN(Cc2ccc(F)cc2)CCO1 (configuration not stated) [MOSAPRIDE] | Not Active | Not Active | – | – | – | – | – | Not Active | – | Not Active | 397 nM | 208 nM | 3680 nM | 1380 nM
10 | CN1C[C@H](CNC(=O)OCc2ccccc2)C[C@@H]2c3cccc4c3c(cn4C)C[C@H]21 [METERGOLINE] | Not Active | Not Active | – | Not Active | Not Active | Not Active | Not Active | – | – | Not Active | – | – | – | –
11 | CCN1CCCC1CNC(=O)c1cc(S(N)(=O)=O)ccc1OC (configuration not stated) [SULPIRIDE] | Not Active | Not Active | Not Active | Not Active | Not Active | Not Active | Not Active | Not Active | – | – | – | – | 2020 nM | 757 nM
12 | CC(Cl)(Cl)Cl [TRICHLOROETHANE] | Not Active | Not Active | Not Active | Not Active | Not Active | Not Active | Not Active | Not Active | Not Active | – | – | – | – | –
13 | CCC(C)(C)C(=O)O[C@H]1C[C@@H](C)C=C2C=C[C@H](C)[C@H](CC[C@@H]3C[C@@H](O)CC(=O)O3)[C@H]21 [SIMVASTATIN] | Not Active | Not Active | Not Active | – | – | – | – | Not Active | Not Active | Not Active | – | – | – | –
14 | CCN(CC)N=O [N-NITROSODIETHYLAMINE] | Not Active | Not Active | Not Active | Not Active | Not Active | Not Active | Not Active | Not Active | Not Active | – | – | – | – | –
15 | CC#C[C@]1(O)CC[C@H]2[C@@H]3CCC4=CC(=O)CCC4=C3[C@@H](c3ccc(N(C)C)cc3)C[C@@]21C [MIFEPRISTONE] | Not Active | Not Active | Not Active | Not Active | Not Active | – | – | Not Active | Not Active | – | – | – | – | –
16 | O=C(OC[C@H]1O[C@@H](OC(=O)c2cc(O)c(O)c(OC(=O)c3cc(O)c(O)c(O)c3)c2)[C@H](OC(=O)c2cc(O)c(O)c(OC(=O)c3cc(O)c(O)c(O)c3)c2)[C@@H](OC(=O)c2cc(O)c(O)c(OC(=O)c3cc(O)c(O)c(O)c3)c2)[C@@H]1OC(=O)c1cc(O)c(O)c(OC(=O)c2cc(O)c(O)c(O)c2)c1)c1cc(O)c(O)c(OC(=O)c2cc(O)c(O)c(O)c2)c1 [TANNIC ACID] | Not Active | Not Active | Not Active | – | – | Not Active | Not Active | Not Active | Not Active | – | – | – | – | –
17 | CN(C)CCC=C1c2ccccc2COc2ccccc21 [DOXEPIN] | – | – | – | Not Active | Not Active | Not Active | Not Active | – | – | – | – | – | – | –
18 | C=CCc1ccc2c(c1)OCO2 [SAFROLE] | Not Active | Not Active | Not Active | Not Active | Not Active | Not Active | Not Active | Not Active | Not Active | – | – | – | – | –
19 | C1CCN2C[C@@H]3C[C@@H](CN4CCCC[C@@H]34)[C@H]2C1 [SPARTEINE] | Not Active | Not Active | Not Active | – | – | – | – | Not Active | Not Active | – | – | – | – | –
20 | CS(=O)(=O)c1ccc(C2=C(c3ccccc3)C(=O)OC2)cc1 [ROFECOXIB] | Not Active | Not Active | Not Active | Not Active | Not Active | Not Active | Not Active | Not Active | Not Active | – | – | – | – | –
21 | Cc1cn([C@H]2C=C[C@@H](CO)O2)c(=O)[nH]c1=O [STAVUDINE] | Not Active | Not Active | Not Active | Not Active | Not Active | Not Active | Not Active | Not Active | Not Active | – | – | – | – | –
22 | CNCCCC12CCC(c3ccccc31)c1ccccc12 [MAPROTILINE] | – | – | – | – | – | – | – | – | – | Not Active | – | – | – | –
23 | C[C@]12CCC(=O)C[C@@H]1CC[C@@H]1[C@@H]2CC[C@]2(C)[C@@H](O)CC[C@@H]12 [STANOLONE] | Not Active | Not Active | Not Active | Not Active | Not Active | Not Active | Not Active | Not Active | Not Active | – | – | – | – | –
24 | CO[C@@]12[C@H](COC(N)=O)C3=C(C(=O)C(C)=C(N)C3=O)N1C[C@@H]1N[C@@H]12 [MITOMYCIN] | Not Active | Not Active | Not Active | Not Active | Not Active | Not Active | Not Active | Not Active | Not Active | – | – | – | – | –
